# Laboratory results as given in patent US8980888B2, “Pyrazole derivative” (Mochida Pharmaceutical Co., Ltd., priority 2013, dated 2015).
# System: dopamine level in the rat brain
# Assay: not given
# Settings: according to U.S. Patent Application No. 2003/0032579; cited from earlier work
row,SMILES,dopamine level in the rat brain
1,COc1ccc(Cc2nccc3cc(OC)c(OC)cc23)cc1OC [papaverine],decreases

# System: haloperidol-induced catalepsy
# Assay: not given
# Settings: rat; according to U.S. Patent Application No. 2003/0032579; cited from earlier work
row,SMILES,haloperidol-induced catalepsy
1,COc1ccc(Cc2nccc3cc(OC)c(OC)cc23)cc1OC [papaverine],increases

# System: apomorphine-induced stereotypy
# Assay: not given
# Settings: rats; according to U.S. Patent Application No. 2003/0032579; cited from earlier work
row,SMILES,apomorphine-induced stereotypy
1,COc1ccc(Cc2nccc3cc(OC)c(OC)cc23)cc1OC [papaverine],decreases

# Molecular target: T1, Human PDE10 (Homo sapiens, UniProt Q9Y233)
# T1 construct: purchased BPA Bioscience (so in the source)
# T1 sequence (Q9Y233 whole entry): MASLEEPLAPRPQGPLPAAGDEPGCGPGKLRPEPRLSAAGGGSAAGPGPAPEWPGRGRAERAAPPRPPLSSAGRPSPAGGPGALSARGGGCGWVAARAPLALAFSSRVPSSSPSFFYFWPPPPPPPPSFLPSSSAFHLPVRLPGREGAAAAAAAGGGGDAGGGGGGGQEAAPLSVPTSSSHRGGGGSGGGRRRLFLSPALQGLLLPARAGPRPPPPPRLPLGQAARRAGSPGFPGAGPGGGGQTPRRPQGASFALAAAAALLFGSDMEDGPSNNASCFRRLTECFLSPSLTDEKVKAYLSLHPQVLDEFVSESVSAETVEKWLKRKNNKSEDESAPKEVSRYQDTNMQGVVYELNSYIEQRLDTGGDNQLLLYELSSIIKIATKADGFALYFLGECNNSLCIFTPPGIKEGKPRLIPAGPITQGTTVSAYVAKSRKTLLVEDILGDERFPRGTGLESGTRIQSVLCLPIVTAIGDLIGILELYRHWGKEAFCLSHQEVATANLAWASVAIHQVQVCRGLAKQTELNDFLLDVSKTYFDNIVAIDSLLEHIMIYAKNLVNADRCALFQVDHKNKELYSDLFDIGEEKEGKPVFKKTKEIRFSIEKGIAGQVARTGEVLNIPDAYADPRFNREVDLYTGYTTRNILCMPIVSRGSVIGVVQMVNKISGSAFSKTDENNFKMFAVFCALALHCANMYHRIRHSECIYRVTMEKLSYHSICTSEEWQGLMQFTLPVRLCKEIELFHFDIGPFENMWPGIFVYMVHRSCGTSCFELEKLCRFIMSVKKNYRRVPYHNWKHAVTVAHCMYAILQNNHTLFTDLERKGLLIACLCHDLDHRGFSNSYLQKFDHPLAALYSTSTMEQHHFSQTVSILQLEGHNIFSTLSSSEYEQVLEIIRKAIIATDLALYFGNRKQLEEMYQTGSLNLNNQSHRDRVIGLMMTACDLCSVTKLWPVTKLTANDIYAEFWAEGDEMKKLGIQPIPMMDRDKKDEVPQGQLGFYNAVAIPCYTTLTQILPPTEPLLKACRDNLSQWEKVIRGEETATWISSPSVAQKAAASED
# Assay: Human PDE10 inhibitory effect (IMAP TR-FRET enzyme inhibition assay)
# Type: biochemical
# Settings: PDE10 inhibitory activity, cAMP substrate
# Experimental: (Evaluation of Enzyme Inhibitory Activity: Human PDE10 Inhibitory Effect)
# IMAP TR-FRET Phosphodiersterase Evaluation Assay Kit (Molecular Device) was used for the measurement. Ten μL of a diluted test compound having each concentration and 5 μL of the enzyme PDE10 (BPA Bioscience) that had been diluted to 2 ng/mL with 1×IMAP Reaction Buffer (prepared with 5× included with the kit, 10 mM Tris-HCl, pH=7.2, 10 mM MgCl2, 0.05% NaN3, and 0.1% BSA) containing 0.1% BSA were added to a 384-well plate (Corning). The obtained mixture was then pre-incubated at room temperature for 5 minutes. Thereafter, 5 μL of cAMP substrate solution which was included with the kit and diluted to 400 nM with 1×IMAP Reaction Buffer containing 0.1% BSA, was added to the reaction solution, and the obtained mixture was reacted at room temperature for 60 minutes. Thereafter, 60 μL of an IMAP TR-FRET Binding solution included with the kit was further added to the reaction solution, and the obtained mixture was then left for 3 hours or more. Subsequently, using ARVO SX (PerkinElmer), the fluorescent intensity of Terbium (Emission=490 nm) and TR-FRET (Emission=520 nm) in the reaction solution were measured at an excitation wavelength of 340 nm, so as to calculate the amount of the generated 5′-AMP. The count of a well to which a solvent had been added instead of the test compound was set at 0%, and the count of a well to which the enzyme PDE10 had not been added was set at 100%. Thus, the inhibitory activity of each test compound was calculated.
# The PDE10 inhibitory activity of the test compound was indicated with an IC50 value. […] The test compounds are shown in Table 3 (Table 3-1 and Table 3-2).
row,SMILES,IC50
1,"Cc1cncc(-c2cnn(C)c2C(=O)NC2CCn3cc(-c4cccc(F)c4)nc3C2)n1 (stereo not shown) [Example 2.24, N-(2-(3-fluorophenyl)-5,6,7,8-tetrahydroimidazo[1,2-a]pyridin-7-yl)-1-methyl-4-(6-methylpyrazin-2-yl)-1H-pyrazole-5-carboxamide]",5 to 100 nM
2,"Cc1nc(-c2cnn(C)c2C(=O)NC2CCn3nc(-c4ccccc4)nc3C2)c(C(C)O)s1 (stereo not shown) [Example 5.31, 4-(5-(1-hydroxyethyl)-2-methylthiazol-4-yl)-1-methyl-N-(2-phenyl-5,6,7,8-tetrahydro-[1,2,4]triazolo[1,5-a]pyridin-7-yl)-1H-pyrazole-5-carboxamide]",5 to 100 nM
3,"Cn1ncc(-c2nc(C(F)F)c(C3CC3)s2)c1C(=O)NC1CCn2nc(-c3cccc(F)c3)nc2C1 (stereo not shown) [Example 5.42, 4-(5-cyclopropyl-4-(difluoromethyl)thiazol-2-yl)-N-(2-(3-fluorophenyl)-5,6,7,8-tetrahydro-[1,2,4]triazolo[1,5-a]pyridin-7-yl)-1-methyl-1H-pyrazole-5-carboxamide]",5 to 100 nM
4,"Cc1sc(-c2cnn(C)c2C(=O)NC2CCn3nc(-c4ccccc4)nc3C2)nc1C(F)F (stereo not shown) [Example 5.1, 4-(4-(difluoromethyl)-5-methylthiazol-2-yl)-1-methyl-N-(2-phenyl-5,6,7,8-tetrahydro-[1,2,4]triazolo[1,5-a]pyridin-7-yl)-1H-pyrazole-5-carboxamide]",< 5 nM
5,"Cc1cccnc1-c1cnn(C)c1C(=O)Nc1cc2nc(-c3ccccc3)nn2cc1F [Example 3.1, N-(6-fluoro-2-phenyl-[1,2,4]triazolo[1,5-a]pyridin-7-yl)-1-methyl-4-(3-methylpyridin-2-yl)-1H-pyrazole-5-carboxamide]",< 5 nM
6,"Cc1ccnc(-c2cnn(C)c2C(=O)Nc2ccn3nc(N4CCCC4)nc3c2)c1 [Example 4.30, 1-methyl-4-(4-methylpyridin-2-yl)-N-(2-(pyrrolidin-1-yl)-[1,2,4]triazolo[1,5-a]pyridin-7-yl)-1H-pyrazole-5-carboxamide]",< 5 nM
7,"Cc1cc(C)nc(-c2cnn(C)c2C(=O)Nc2ccn3nc(N4CC[C@H](F)C4)nc3c2)c1 [Example 4.20, (S)-4-(4,6-dimethylpyridin-2-yl)-N-(2-(3-fluoropyrrolidin-1-yl)-[1,2,4]triazolo[1,5-a]pyridin-7-yl)-1-methyl-1H-pyrazole-5-carboxamide]",< 5 nM
8,"Cc1nc(-c2cnn(C)c2C(=O)NC2CCn3nc(-c4ccc(F)cc4)nc3C2)c(C)s1 (stereo not shown) [Example 5.28, 4-(2,5-dimethylthiazol-4-yl)-N-(2-(4-fluorophenyl)-5,6,7,8-tetrahydro-[1,2,4]triazolo[1,5-a]pyridin-7-yl)-1-methyl-1H-pyrazole-5-carboxamide]",5 to 100 nM
9,"C[C@H]1CCCN1c1nc2cc(NC(=O)c3c(-c4cccc(C(F)(F)F)n4)cnn3C)ccn2n1 [Example 4.3, (S)-1-methyl-N-(2-(2-methylpyrrolidin-1-yl)-[1,2,4]triazolo[1,5-a]pyridin-7-yl)-4-(6-(trifluoromethyl)pyridin-2-yl)-1H-pyrazole-5-carboxamide]",< 5 nM
10,"Cc1ccnc(-c2cnn(C)c2C(=O)NC2CCn3cc(-c4cccc(F)c4)nc3C2)n1 (stereo not shown) [Example 2.23, N-(2-(3-fluorophenyl)-5,6,7,8-tetrahydroimidazo[1,2-a]pyridin-7-yl)-1-methyl-4-(4-methylpyrimidin-2-yl)-1H-pyrazole-5-carboxamide]",5 to 100 nM
11,"C[C@H]1CCCN1c1nc2cc(NC(=O)c3c(-c4nc(C(F)F)c(Cl)s4)cnn3C)ccn2n1 [Example 4.2, (S)-4-(5-chloro-4-(difluoromethyl)thiazol-2-yl)-1-methyl-N-(2-(2-methylpyrrolidin-1-yl)-[1,2,4]triazolo[1,5-a]pyridin-7-yl)-1H-pyrazole-5-carboxamide]",< 5 nM
12,"Cn1ncc(-c2nc(C(C)(C)C)cs2)c1C(=O)NC1CCn2cc(-c3ccccc3)nc2C1 (stereo not shown) [Example 2.27, 4-(4-(tert-butyl)thiazol-2-yl)-1-methyl-N-(2-phenyl-5,6,7,8-tetrahydroimidazo[1,2-a]pyridin-7-yl)-1H-pyrazole-5-carboxamide]",5 to 100 nM
13,"Cc1cccc(-c2cnn(C)c2C(=O)NC2CCn3nc(-c4ccccc4)nc3C2)n1 (stereo not shown) [Example 5.19, 1-methyl-4-(6-methylpyridin-2-yl)-N-(2-phenyl-5,6,7,8-tetrahydro-[1,2,4]triazolo[1,5-a]pyridin-7-yl)-1H-pyrazole-5-carboxamide]",5 to 100 nM
14,"Cc1nc(-c2cnn(C)c2C(=O)NC2CCn3cc(-c4ccccc4)nc3C2)sc1C (stereo not shown) [Example 2.2, 4-(4,5-dimethylthiazol-2-yl)-1-methyl-N-(2-phenyl-5,6,7,8-tetrahydroimidazo[1,2-a]pyridin-7-yl)-1H-pyrazole-5-carboxamide]",< 5 nM
15,"Cn1ncc(-c2ncccc2C#N)c1C(=O)NC1CCn2nc(-c3ccccc3)nc2C1 (stereo not shown) [Example 5.27, 4-(3-cyanopyridin-2-yl)-1-methyl-N-(2-phenyl-5,6,7,8-tetrahydro-[1,2,4]triazolo[1,5-a]pyridin-7-yl)-1H-pyrazole-5-carboxamide]",5 to 100 nM
16,"Cc1nc(-c2cnn(C)c2C(=O)NC2CCn3nc(-c4ccccc4)nc3C2)c(Br)s1 (stereo not shown) [Example 5.13, 4-(5-bromo-2-methylthiazol-4-yl)-1-methyl-N-(2-phenyl-5,6,7,8-tetrahydro-[1,2,4]triazolo[1,5-a]pyridin-7-yl)-1H-pyrazole-5-carboxamide]",5 to 100 nM
